From patent US20240252677A1, “ONE-COMPONENT DELIVERY SYSTEM FOR NUCLEIC ACIDS” (The Trustees of the University of Pennsylvania, priority 2021, published 2024)

Key:
[1] = test system: liver; assay: In vivo mRNA delivery, IVIS imaging of organs: liver; parameters: species or system mice; key to Organs with luminescence: liver: strong: Strong meant the luminescence intensity in that organ was relatively high, compared to other organs; weak: Weak meant the luminescence intensity in that organ was relatively low, compared to other organs; settings: Table 17; mice, IVIS, 4-6 h after injection; intensity relative to other organs
Protocol: The exposure time was 1 min.
Tissue luminescence signal was measured on the IVIS imaging system using an exposure time of 60 seconds using medium binning (binning=8) to ensure that the signal obtained was within operative detection range. […] Bioluminescence imaging was performed as described above.
Tissue luminescence signal was measured on the IVIS imaging system using a certain exposure time (60, 30 or 15 seconds) and medium binning (binning=8) to ensure that the signal obtained was within operative detection range.

[2] = test system: spleen; assay: In vivo mRNA delivery, IVIS imaging of organs: spleen; parameters: species or system mice; key to Organs with luminescence: spleen: strong: Strong meant the luminescence intensity in that organ was relatively high, compared to other organs; weak: Weak meant the luminescence intensity in that organ was relatively low, compared to other organs; settings: Table 17; mice, IVIS, 4-6 h after injection; intensity relative to other organs
[3] = Dimensions (size, PDI) of DNPs co-assembled from IAJDs and Luc-mRNA by DLS; format: physicochemical
Outline: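 IAJDs (80 mg/mL ethanol stock) rapidly injected into Luc-mRNA (4.0 mg/mL stock) diluted in 10 mM acetate buffer pH 4.0, then vortexed 5 s. Size and polydispersity of resulting DNPs measured by DLS (633 nm laser, 175° detection) at 23 °C.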

[4] = pKa measurements of individual IAJD molecules by titration; format: physicochemical; settings: ethanol saturated with NaCl, titrated with 0.1 M aqueous HCl; individual IAJD molecules, titration
Outline: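 Compound dissolved at 1.5 mg/mL in NaCl-saturated ethanol and titrated with 0.1 M HCl in 7.5 μL steps, pH read by electrode after each addition. pKa taken from the half-equivalence point.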

[5] = Stability of DNPs by DLS after storage at 5° C.; format: physicochemical; parameters: key to Original size distribution type (DLS curve) / Size distribution type (DLS curve): U: DLS curve showed unimodal size distribution; B: DLS curve showed bimodal size distribution; M: DLS curve showed multimodal size distribution; settings: for pH Sample: DNPs: IAJD 4.0 mg/mL + Luc-mRNA 0.1 mg/mL, injection in acetate buffer pH 4.00; for PDI / Size (d, nm) / Original size distribution type (DLS curve): IAJD 4.0 mg/mL + Luc-mRNA 0.1 mg/mL; for PDI / Size (d, nm): acetate buffer; for Original size distribution type (DLS curve): before storage, acetate buffer pH 4.00
Outline: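 DNPs in acetate buffer sized by DLS after storage at 5 °C. Stability ranked Excellent, Good or Not stable according to retention, shrinkage or growth of original size and narrowing or broadening of size distribution.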

[6] = Table 16, DNPs from IAJD 4 mg/mL and Luc-mRNA 0.10 mg/mL by injection in acetate buffer (10 mM, pH 4.0)
[7] = Table 17, DNPs used in vivo, IAJD 4 mg/mL, Luc-mRNA 0.10 mg/mL, acetate pH 4.0

| SMILES | Organs with luminescence: liver [1] | Organs with luminescence: spleen [2] | PDI [3, 6] | Size (d, nm) [3, 6] [nm] | PDI [3, 7] | Size (d, nm) [3, 7] [nm] | pKa [4] | pH Sample [5] | Size distribution type (DLS curve) ([5]; after 27 days at 5° C.) | PDI ([5]; after 27 days at 5° C.) | Size (d, nm) ([5]; after 27 days at 5° C.) [nm] | Original size distribution type (DLS curve) [5] | Size distribution type (DLS curve) ([5]; after 19 days at 5° C.) | PDI ([5]; after 19 days at 5° C.) | Size (d, nm) ([5]; after 19 days at 5° C.) [nm] |
| --- | --- | --- | --- | --- | --- | --- | --- | --- | --- | --- | --- | --- | --- | --- | --- |
| CCCCCCCCCCCCCCCOc1cc(COC(=O)CCCN2CCN(CCO)CC2)cc(OCCCCCCCCCCCC)c1 [IAJD 144, 3-(Dodecyloxy)-5-(pentadecyloxy)benzyl 4-(4-(2-hydroxyethyl)piperazin-1-yl)butanoate] | liver (weak), | spleen (strong) | 0.432 | 236 | 0.432 | 236 | 6.51 | 4.40 | (U) | 0.276 | 216 | (B) | – | – | – |
| CCCCCCCCCCCCCCCOc1cc(COC(=O)CCCN2CCN(C)CC2)cc(OCCCCCCCCCCCCC)c1 [IAJD 145, 3-(pentadecyloxy)-5-(tridecyloxy)benzyl 4-(4-methylpiperazin-1-yl)butanoate] | liver (weak), | spleen (strong) | 0.306 | 194 | 0.306 | 194 | 6.28 | 4.51 | (U) | 0.330 | 189 | (U) | – | – | – |
| CCCCCCCCCCCCCCCOc1cc(COC(=O)CCCN2CCN(CCO)CC2)cc(OCCCCCCCCCCCCC)c1 [IAJD 146, 3-(Pentadecyloxy)-5-(tridecyloxy)benzyl 4-(4-(2-hydroxyethyl)piperazin-1-yl)butanoate] | liver (strong), | spleen (strong) | 0.276 | 231 | 0.276 | 231 | 6.59 | 4.40 | (U) | 0.285 | 227 | (U) | – | – | – |
| CCCCCCCCCCCCCCCOc1cc(COC(=O)CCCN2CCN(C)CC2)cc(OCCCCCCCCCCCCCC)c1 [IAJD 147, 3-(Pentadecyloxy)-5-(tetradecyloxy)benzyl 4-(4-methylpiperazin-1-yl)butanoate] | liver (weak), | spleen (strong) | 0.287 | 144 | 0.287 | 144 | 6.32 | 4.50 | – | – | – | (U) | (U) | 0.283 | 145 |
| CCCCCCCCCCCCCCCOc1cc(COC(=O)CCCN2CCN(CCO)CC2)cc(OCCCCCCCCCCCCCC)c1 [IAJD 148, 3-(Pentadecyloxy)-5-(tetradecyloxy)benzyl 4-(4-(2-hydroxyethyl)piperazin-1-yl)butanoate] | liver (weak), | spleen (strong) | 0.339 | 363 | 0.339 | 363 | 6.65 | 4.46 | – | – | – | (U) | (B) | 0.374 | 405 |
| CCCCCCCCCCCCCCCCOc1cc(COC(=O)CCCN2CCN(C)CC2)cc(OCCCCCCCCCCCCCCC)c1 [IAJD 149, 3-(Hexadecyloxy)-5-(pentadecyloxy)benzyl 4-(4-methylpiperazin-1-yl)butanoate] | liver (weak), | spleen (strong) | 0.304 | 193 | 0.304 | 193 | 6.5 | 4.50 | – | – | – | (B) | (B) | 0.291 | 193 |
